Data reported in US9226506B2, “Methods of weed control in chicory” (Dow AgroSciences LLC, priority 2013, dated 2016).

Tests used:
[1] = test system: Artemisia biennis (biennial wormwood), ARTRI; experiment: Field trial, post-emergence weed control in chicory; assay type: in vivo; details: 3 trials, 30 days after last application
Experimental: (§1) Field trials were conducted in Northern France and Belgium, both of which are major areas for root chicory and whitloof chicory production. Trials were conducted in accordance with EPPO standard PP 1/99(3) entitled “Weeds in Roots Vegetables,” PP 1/152(4) entitled “Design and Analysis of Efficacy Evaluation Trials,” PP 1/135(3) entitled “Phytotoxic Assessment,” and PP 1/181(4) entitled “Conduct and Reporting of Efficacy Evaluation Trials Including Good Experimental Practice,” all of which are incorporated herein by reference in their entirety.
(§2) Application to all field trials was made using a small plot precision sprayer operating at between 160-400 kilopascals (kPa) pressure, delivering a spray volume of 150-400 liters per hectare (L/ha). Nozzles were of a flat fan type. Trial plot size ranged from 4.5×2.5 square meters (m^2) to 10.5×2.5 m^2. Plots were replicated 3 or 4 times and were arranged in a randomized block design within each trial. All trials received a pre-emergence application of BONALAN® at 6 L/ha (benfluralin; 180 grams active ingredient per liter (g ai/L); commercially available from Dow AgroSciences LLC) with incorporation to prevent the emergence of grasses which could complicate the assessment of broadleaf control.
(§3) In whitloof chicory (Cichorium intybus), treatments were evaluated which included either two or three post-emergence applications of herbicide. Multiple applications of herbicide were evaluated for their ability to control weed emergence during the extended period of time required for chicory cultivation. Trials included different combinations of application rate and application timing. Broadcast applications were made from May to July, covering a range of possible application timings. Penoxulam was applied at a maximum total rate of 15 g/ha per season, applied in two or three applications with a minimum of seven days between applications. Treatment with penoxsulam involved application of either BOA® or VIPER® (2.14% weight per weight (w/w) oil dispersions of penoxsulam commercially available from Dow AgroSciences LLC). Trials were also conducted using another ALS mode-of-action herbicide (i.e., the sulfonylurea triflusulfuron-methyl). Triflusulfuron-methyl was applied at a maximum total rate of 30 g/ha per season, applied in two or three applications with a minimum of seven days between applications. Treatment with triflusulfuron-methyl involved application of SAFARI® (triflusulfuron-methyl; commercially available from DuPont Crop Protection).
(§4) Prior to treatment application, assessments of weed populations (number of plants per m^2) were carried out using a quadrant square and an appropriate number of sampling points.
(§5) 1) Visual rating in percent of the overall volume reduction of vegetation for each species compared to the nearest untreated plot (Plant/Control/% visual; 0%=no control; 100%=all weeds dead). Assessments of this type were performed by Dow AgroSciences LLC in France.
(§6) Assessments of weed control were carried out at 14, 28, 56 and 84 days or longer after each application timing (DAAA=days after application A, DAAB=days after application B or DAAC=days after application C).

[2] = test system: Solanum nigrum (black nightshade), SQLNI; experiment: as above; assay type: in vivo; details: 2 trials, 30 days after last application
Experimental: as §1, §2, §3, §4, §5, §6

[3] = test system: Galinsoga ciliata (shaggy soldier) / Galinsoga parviflora (potato weed), GASCI-GASPA; experiment: as above; assay type: in vivo; details: 4 trials, 30 days after last application
Experimental: as §1, §2, §3, §4, §5, §6

[4] = test system: Sonchus sp. (sow-thistle), SONSS; experiment: as above; assay type: in vivo; details: 1 trial, 30 days after last application
Experimental: as §1, §2, §3, §4, §5, §6

[5] = test system: Capsella bursa-pastoris (shepherd's purse), CAPBP; experiment: as above; assay type: in vivo; details: 2 trials, 30 days after last application
Experimental: as §1, §2, §3, §4, §5, §6

[6] = test system: chicory (varieties Ecrine, Hermès); experiment: Yield of chicons after forcing; assay type: in vivo, Cichorium intybus; details: 171 DAAC and 21 days after start of forcing; for Yield of Chicons, Brut, Average / Yield of Chicons, Brut, Ecrine / Yield of Chicons, Brut, Hermès: total weight of chicons; for Yield of Chicons, Brut, Average: average of both varieties; for Yield of Chicons, Extra + 1, Ecrine / Yield of Chicons, Extra + 1, Hermès: weight of Extra and First Class chicons; for Yield of Chicons, Net, Ecrine / Yield of Chicons, Net, Hermès: weight of marketable chicons
Experimental: Trials were also performed to investigate the effect of post-emergence applications of penoxsulam or SAFARI® (triflusulfuron-methyl) on the yield of chicons in two different varieties of chicory. The trial was carried out on plots measuring 3×5 meters. Two varieties of chicory (Hermes and Ecrine) were sown. Treatments were carried out, as described above (a) 18 days after sowing, (b) 25 days after sowing, and (c) 32 days after sowing. Trial assessments were carried out 21 DAAC and 46 DAAC on the number of plants per linear meter, and on their development stage (number of leaves per plant).
Harvest was carried out 171 DAAC on 4 rows per plot. After harvest, the roots were counted and weighted, and the percent of roots usable for forcing was measured. The roots were then stored in a conservation room for 21 days until start of forcing phase. After 21 days of forcing, the chicons produced were weighed and classified in the commercial quality categories. The brut yield (total weight of chicons produced; marketable+non-marketable), net yield (weight of marketable chicons produced) and best class yield (Extra+1=weight of Extra and First Class chicons produced) were measured (in kilograms per 10 square meters (kg/10 m^2)).

[7] = 3 applications 3.73/3.73/3.73 g ai/ha

COc1cnc(OC)n2nc(NS(=O)(=O)c3c(OCC(F)F)cccc3C(F)(F)F)nc12 [Penoxsulam]
% Visual Weed Control ([1]; 2 applications 5.6/5.6 g ai/ha): 64.4%
% Visual Weed Control ([1]; 2 applications 7.5/7.5 g ai/ha): 68.3%
% Visual Weed Control [1, 7]: 68.8%
% Visual Weed Control ([1]; 3 applications 5/5/5 g ai/ha): 76.4%
% Visual Weed Control ([2]; 2 applications 5.6/5.6 g ai/ha): 66.5%
% Visual Weed Control ([2]; 2 applications 7.5/7.5 g ai/ha): 100%
% Visual Weed Control [2, 7]: 83.4%
% Visual Weed Control ([2]; 3 applications 5/5/5 g ai/ha): 83.4%
% Visual Weed Control ([3]; 2 applications 5.6/5.6 g ai/ha): 87.3%
% Visual Weed Control ([3]; 2 applications 7.5/7.5 g ai/ha): 87.9%
% Visual Weed Control [3, 7]: 95.9%
% Visual Weed Control ([3]; 3 applications 5/5/5 g ai/ha): 96.7%
% Visual Weed Control ([4]; 2 applications 5.6/5.6 g ai/ha): 86%
% Visual Weed Control ([4]; 2 applications 7.5/7.5 g ai/ha): 86%
% Visual Weed Control [4, 7]: 86%
% Visual Weed Control ([4]; 3 applications 5/5/5 g ai/ha): 86%
% Visual Weed Control ([5]; 2 applications 5.6/5.6 g ai/ha): 100%
% Visual Weed Control ([5]; 2 applications 7.5/7.5 g ai/ha): 100%
% Visual Weed Control [5, 7]: 100%
% Visual Weed Control ([5]; 3 applications 5/5/5 g ai/ha): 100%
Yield of Chicons, Brut, Average ([6]; 5/5/5 g ai/ha): 40.7 Kg/10 m^2
Yield of Chicons, Brut, Average ([6]; 7.5/7.5/7.5 g ai/ha): 40.8 Kg/10 m^2
Yield of Chicons, Brut, Average ([6]; 7.5/7.5 g ai/ha): 39.6 Kg/10 m^2
Yield of Chicons, Brut, Average ([6]; 10/10/10 g ai/ha): 45.1 Kg/10 m^2
Yield of Chicons, Brut, Average ([6]; 11.2/11.2 g ai/ha): 39.9 Kg/10 m^2
Yield of Chicons, Brut, Average ([6]; 15/15 g ai/ha): 39.9 Kg/10 m^2
Yield of Chicons, Brut, Ecrine ([6]; 5/5/5 g ai/ha): 47.5 Kg/10 m^2
Yield of Chicons, Brut, Hermès ([6]; 5/5/5 g ai/ha): 33.8 Kg/10 m^2
Yield of Chicons, Brut, Ecrine ([6]; 7.5/7.5/7.5 g ai/ha): 45.1 Kg/10 m^2
Yield of Chicons, Brut, Hermès ([6]; 7.5/7.5/7.5 g ai/ha): 36.5 Kg/10 m^2
Yield of Chicons, Brut, Ecrine ([6]; 7.5/7.5 g ai/ha): 42.4 Kg/10 m^2
Yield of Chicons, Brut, Hermès ([6]; 7.5/7.5 g ai/ha): 36.7 Kg/10 m^2
Yield of Chicons, Brut, Ecrine ([6]; 10/10/10 g ai/ha): 50.7 Kg/10 m^2
Yield of Chicons, Brut, Hermès ([6]; 10/10/10 g ai/ha): 39.4 Kg/10 m^2
Yield of Chicons, Brut, Ecrine ([6]; 11.2/11.2 g ai/ha): 42.8 Kg/10 m^2
Yield of Chicons, Brut, Hermès ([6]; 11.2/11.2 g ai/ha): 37 Kg/10 m^2
Yield of Chicons, Brut, Ecrine ([6]; 15/15 g ai/ha): 46.4 Kg/10 m^2
Yield of Chicons, Brut, Hermès ([6]; 15/15 g ai/ha): 33.4 Kg/10 m^2
Yield of Chicons, Extra + 1, Ecrine ([6]; 5/5/5 g ai/ha): 29 Kg/10 m^2
Yield of Chicons, Extra + 1, Hermès ([6]; 5/5/5 g ai/ha): 17.7 Kg/10 m^2
Yield of Chicons, Extra + 1, Ecrine ([6]; 7.5/7.5/7.5 g ai/ha): 27.2 Kg/10 m^2
Yield of Chicons, Extra + 1, Hermès ([6]; 7.5/7.5/7.5 g ai/ha): 18.6 Kg/10 m^2
Yield of Chicons, Extra + 1, Ecrine ([6]; 7.5/7.5 g ai/ha): 28.2 Kg/10 m^2
Yield of Chicons, Extra + 1, Hermès ([6]; 7.5/7.5 g ai/ha): 21.1 Kg/10 m^2
Yield of Chicons, Extra + 1, Ecrine ([6]; 10/10/10 g ai/ha): 29.5 Kg/10 m^2
Yield of Chicons, Extra + 1, Hermès ([6]; 10/10/10 g ai/ha): 19.2 Kg/10 m^2
Yield of Chicons, Extra + 1, Ecrine ([6]; 11.2/11.2 g ai/ha): 25 Kg/10 m^2
Yield of Chicons, Extra + 1, Hermès ([6]; 11.2/11.2 g ai/ha): 22.8 Kg/10 m^2
Yield of Chicons, Extra + 1, Ecrine ([6]; 15/15 g ai/ha): 30.7 Kg/10 m^2
Yield of Chicons, Extra + 1, Hermès ([6]; 15/15 g ai/ha): 16.1 Kg/10 m^2
Yield of Chicons, Net, Ecrine ([6]; 5/5/5 g ai/ha): 36.4 Kg/10 m^2
Yield of Chicons, Net, Hermès ([6]; 5/5/5 g ai/ha): 25.6 Kg/10 m^2
Yield of Chicons, Net, Ecrine ([6]; 7.5/7.5/7.5 g ai/ha): 34.6 Kg/10 m^2
Yield of Chicons, Net, Hermès ([6]; 7.5/7.5/7.5 g ai/ha): 25.7 Kg/10 m^2
Yield of Chicons, Net, Ecrine ([6]; 7.5/7.5 g ai/ha): 33.9 Kg/10 m^2
Yield of Chicons, Net, Hermès ([6]; 7.5/7.5 g ai/ha): 26.6 Kg/10 m^2
Yield of Chicons, Net, Ecrine ([6]; 10/10/10 g ai/ha): 38.7 Kg/10 m^2
Yield of Chicons, Net, Hermès ([6]; 10/10/10 g ai/ha): 27.7 Kg/10 m^2
Yield of Chicons, Net, Ecrine ([6]; 11.2/11.2 g ai/ha): 33.2 Kg/10 m^2
Yield of Chicons, Net, Hermès ([6]; 11.2/11.2 g ai/ha): 28.6 Kg/10 m^2
Yield of Chicons, Net, Ecrine ([6]; 15/15 g ai/ha): 37.4 Kg/10 m^2
Yield of Chicons, Net, Hermès ([6]; 15/15 g ai/ha): 22.5 Kg/10 m^2
